Experimental data reported in patent US11680060B2, “Bicycloheptane pyrrolidine orexin receptor agonists” (Merck Sharp & Dohme LLC, priority 2020, dated 2023).

These compounds were tested against human OX2R (Homo sapiens (Human), UniProt O43614) (assay: IPOne (IP-1) assay in CHO cells expressing human OX2R). Details: CHO cells expressing human OX2R; IP-One detection; 2 hours incubation; EC50 = inflection point of four parameter logistic fit; read-out: hOX2R_IP_IC50.
Type: cell-based
In short: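 CHO cells stably expressing human OX2R were stimulated with compound (10-point ½-log dilutions) for 2 h at 37 °C. IP-1 accumulation was read by HTRF (IP-One, 665/620 nm). EC50 from a four-parameter fit; % effect relative to 1 μM reference agonist control.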

Chain of human OX2R (O43614 whole entry): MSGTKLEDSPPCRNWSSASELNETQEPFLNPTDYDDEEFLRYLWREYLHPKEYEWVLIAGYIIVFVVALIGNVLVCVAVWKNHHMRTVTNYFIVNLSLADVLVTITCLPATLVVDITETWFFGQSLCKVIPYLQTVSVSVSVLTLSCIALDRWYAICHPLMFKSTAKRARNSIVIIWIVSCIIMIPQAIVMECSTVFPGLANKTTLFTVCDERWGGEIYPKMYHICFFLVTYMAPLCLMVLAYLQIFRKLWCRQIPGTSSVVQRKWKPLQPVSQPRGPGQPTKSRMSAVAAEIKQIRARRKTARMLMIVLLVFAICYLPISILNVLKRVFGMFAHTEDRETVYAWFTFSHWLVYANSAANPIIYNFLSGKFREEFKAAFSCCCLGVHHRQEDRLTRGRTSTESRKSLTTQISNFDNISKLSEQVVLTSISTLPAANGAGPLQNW

IC50 [nM] | Structure (SMILES)
4.5 | COC(=O)N1[C@H](C)C[C@H](NS(C)(=O)=O)[C@@H]1CO[C@H]1CC[C@@]2(c3ncccn3)C[C@H]2C1 (single isomer, unassigned) [Example 181]
1.7 | COC(=O)N1[C@H](C(F)F)C[C@H](NS(C)(=O)=O)[C@@H]1CO[C@H]1CC[C@@]2(c3ncc(F)cn3)C[C@H]2C1 (single isomer, unassigned) [Example 127]
1.5 | COC(=O)N1[C@H](C)C[C@H](NS(=O)(=O)N(C)C)[C@@H]1COC1CCC2(c3ncc(F)cn3)CC2C1 (stereo partly drawn) [Example 169, methyl (2R,3S,5R)-3-((N,N-dimethylsulfamoyl)amino)-2-(((6-(5-fluoropyrimidin-2-yl)bicyclo[4.1.0]heptan-3-yl)oxy)methyl)-5-methylpyrrolidine-1-carboxylate]
458 | CC(C)OC(=O)N1[C@H](C)C[C@H](NS(=O)(=O)C(F)F)[C@@H]1COC1CCC2(c3ncc(F)cn3)CC2C1 (single isomer, unassigned) [Example 93]

Same assay, conditions: CHO, percentage of mean max effect of a reference compound at 1 uM (100% activity by comparison to Orexin A), human OX2R; read-out: Emax (%)

Structure (SMILES) | Emax [%]
C[C@@H]1C[C@H](NS(C)(=O)=O)[C@H](CO[C@H]2CC[C@@]3(c4ncc(F)cn4)C[C@H]3C2)N1C(=O)OCCF [Example 62, 2-Fluoroethyl (2R,3S,5R)-2-((((1S,3S,6R)-6-(5-fluoropyrimidin-2-yl)bicyclo[4.1.0]heptan-3-yl)oxy)methyl)-5-methyl-3-(methylsulfonamido)pyrrolidine-1-carboxylate] | 100
C[C@@H]1C[C@H](NS(C)(=O)=O)[C@H](CO[C@H]2CC[C@@]3(c4ncc(F)cn4)C[C@H]3C2)N1C(=O)OCC1(F)CCC1 [Example 53, (1-fluorocyclobutyl)methyl (2R,3S,5R)-2-((((1S,3S,6R)-6-(5-fluoropyrimidin-2-yl)bicyclo[4.1.0]heptan-3-yl)oxy)methyl)-5-methyl-3-(methylsulfonamido)pyrrolidine-1-carboxylate] | 104
CCC(C)S(=O)(=O)N[C@H]1C[C@@H](C)N(C(=O)OC)[C@H]1CO[C@H]1CC[C@@]2(c3ncc(F)cn3)C[C@H]2C1 (stereo partly drawn) [Example 41, methyl (2R,3S,5R)-2-((((1S,3S,6R)-6-(5-fluoropyrimidin-2-yl)bicyclo[4.1.0]heptan-3-yl)oxy)methyl)-5-methyl-3-((1-methylpropyl)sulfonamido)pyrrolidine-1-carboxylate] | 104
COC(=O)N1[C@H](C)C[C@H](NS(=O)(=O)N2CCC2)[C@@H]1CO[C@@H]1CC[C@]2(c3ncc(F)cn3)C[C@@H]2C1 [Example 43, methyl (2R,3S,5R)-3-(azetidine-1-sulfonamido)-2-((((1R,3R,6S)-6-(5-fluoropyrimidin-2-yl)bicyclo[4.1.0]heptan-3-yl)oxy)methyl)-5-methylpyrrolidine-1-carboxylate] | 97.8
COC(=O)N1[C@H](C)C[C@H](NS(C)(=O)=O)[C@@H]1COC1CCC2(c3ncc(F)c(OC)n3)CC2C1 (stereo partly drawn) [Example 76, methyl (2R,3S,5R)-2-(((6-(5-fluoro-4-methoxypyrimidin-2-yl)bicyclo[4.1.0]heptan-3-yl)oxy)methyl)-5-methyl-3-(methylsulfonamido)pyrrolidine-1-carboxylate] | 101
COC(=O)N1[C@H](C)C[C@H](NS(=O)(=O)C(F)F)[C@@H]1CO[C@H]1CC[C@@]2(c3ncc(F)cn3)C[C@H]2C1 [Example 48, methyl (2R,3S,5R)-3-((difluoromethyl)sulfonamido)-2-((((1S,3S,6R)-6-(5-fluoropyrimidin-2-yl)bicyclo[4.1.0]heptan-3-yl)oxy)methyl)-5-methylpyrrolidine-1-carboxylate] | 101

The next lines start with the values.

Emax [%] | Structure (SMILES)
102 | CC(C)OC(=O)N1CCC[C@H](NS(=O)(=O)C(F)(F)F)[C@@H]1COC1CC[C@@]2(c3ncc(F)cn3)CC2C1 (stereo partly drawn) [Example 123, isopropyl (2R,3S)-2-(((6-(5-fluoropyrimidin-2-yl)bicyclo[4.1.0]heptan-3-yl)oxy)methyl)-3-((trifluoromethyl)sulfonamido)piperidine-1-carboxylate]
101 | COC(=O)N1[C@H](C)C[C@H](NS(C)(=O)=O)[C@@H]1CO[C@H]1CC[C@@]2(c3ncccn3)C[C@H]2C1 (single isomer, unassigned) [Example 181]
101 | COC(=O)N1[C@H](C)C[C@H](NS(C)(=O)=O)[C@@H]1CO[C@H]1CC[C@@]2(c3ncc(F)cn3)C[C@H]2C1 [Example 137, methyl (2R,3S,5R)-2-((((1S,3S,6R)-6-(5-fluoropyrimidin-2-yl)bicyclo[4.1.0]heptan-3-yl)oxy)methyl)-5-methyl-3-(methylsulfonamido)pyrrolidine-1-carboxylate]
103 | COC(=O)N1[C@H](C)C[C@H](NS(C)(=O)=O)[C@@H]1COC1CCC2(c3ncc(Cl)cn3)CC2C1 (stereo partly drawn) [Example 140, methyl (2R,3S,5R)-2-(((6-(5-chloropyrimidin-2-yl)bicyclo[4.1.0]heptan-3-yl)oxy)methyl)-5-methyl-3-(methylsulfonamido)pyrrolidine-1-carboxylate]
101 | COC(=O)N1[C@H](C(F)F)C[C@H](NS(C)(=O)=O)[C@@H]1CO[C@H]1CC[C@@]2(c3ncc(F)cn3)C[C@H]2C1 (single isomer, unassigned) [Example 127]
102 | COC(=O)N1[C@H](C)C[C@H](NS(C)(=O)=O)[C@@H]1CO[C@H]1CC[C@@]2(c3ncc(Cl)cn3)C[C@H]2C1 [Example 142, methyl (2R,3S,5R)-2-((((1S,3S,6R)-6-(5-chloropyrimidin-2-yl)bicyclo[4.1.0]heptan-3-yl)oxy)methyl)-5-methyl-3-(methylsulfonamido)pyrrolidine-1-carboxylate]
102 | COC(=O)N1[C@H](C)C[C@H](NS(C)(=O)=O)[C@@H]1COC1CCC2(c3ncccn3)CC2C1 (stereo partly drawn) [Example 184, methyl (2R,3S,5R)-5-methyl-3-(methylsulfonamido)-2-(((6-(pyrimidin-2-yl)bicyclo[4.1.0]heptan-3-yl)oxy)methyl)pyrrolidine-1-carboxylate]

Same assay, conditions: percentage of mean max effect of a reference compound at 1 uM (100% activity by comparison to Orexin A), human OX2R

Emax (%) | Structure (SMILES)
93.5 | COC(=O)N1[C@H](C)C[C@H](NS(=O)(=O)N(C)C)[C@@H]1COC1CCC2(c3cnccn3)CC2C1 (single isomer, unassigned) [Example 14]
82.0 | COC(=O)N1[C@H](C)C[C@H](NS(=O)(=O)N(C)C)[C@@H]1COC1CCC2(c3cnccn3)CC2C1 (stereo partly drawn) [Example 13, methyl (2R,3S,5R)-3-((N,N-dimethylsulfamoyl)amino)-5-methyl-2-(((6-(pyrazin-2-yl)bicyclo[4.1.0]heptan-3-yl)oxy)methyl)pyrrolidine-1-carboxylate]
40.6 | CC(C)OC(=O)N1[C@H](C)C[C@H](NS(=O)(=O)C(F)F)[C@@H]1COC1CCC2(c3ncc(F)cn3)CC2C1 (single isomer, unassigned) [Example 93]
